Results taken from patent publication US7268162B2, “Aloe-emodin derivatives and their use in the treatment of neoplasias” (Universita' Degli Studi di Padova, priority 2001, dated 2007).
Where a name gives a salt, the structure may show the parent alone.

Columns and labels:
[1] = water and physiological solution; cited from earlier work
[2] = tested on: tumour cells of neuroectodermal origin; details: Italian patent application No. MI 2000A001216; cited from earlier work
SJ-N-KP [3] = assay: In vitro cytotoxicity assay (MTT), neuroblastoma SJ-N-KP; format: cell-based, human; details: 72 hrs exposure, medium with 10% inactivated FBS
Experimental: (§1) In vitro cytotoxicity assays were conducted on different tumour cell lines, also of neuroectodermal origin. Purpose of said assays was also to check the compounds cytotoxic action and specificity. […] The aforesaid cells were assayed with the following compounds: • AM: ester of maleic acid (ex. 1) dissolved in DMSO • AS: ester of succinic acid (ex. 2) dissolved in DMSO • ADG: ester of diglycolic acid (ex. 3) dissolved in DMSO • AF: ester of phthalic acid (ex. 4) dissolved in DMSO • ABT: […] AE phosphoric ester (ex.12) dissolved in HEPES • AED: AE acetal with daunosamine (ex.13) dissolved in HEPES The cells, cultured according to known methods, were seeded 24 hrs prior to treatment with the various derivatives at a concentration of 1000 cells/100 μl. For molecules dissolved in dimethylsulphoxide, DMSO, the concentration of the initial stock was 200 mM and for molecules dissolved in a HEPES buffer and in the physiological solution was 1 mM. […] For each assay, a control was carried out with the medium alone (RPMI with 10% inactivated fetal bovine serum, FBS, and 1% penicillin/streptomycin). […] The cells viability was assessed by the MTT dye assay. […] The EC50 values (μM) referred to each compound and cell line are given.

IMR5 [4] = assay: In vitro cytotoxicity assay (MTT), neuroblastoma IMR-5; format: cell-based, human; details: medium with 10% inactivated FBS
Experimental: as §1

LoVo 109 [5] = assay: In vitro cytotoxicity assay (MTT), colon adenocarcinoma LoVo 109; format: cell-based, human; details: 72 hrs exposure, medium with 10% inactivated FBS
Experimental: as §1

SJ-N-KP [6] = assay: In vitro cytotoxicity assay (MTT), neuroblastoma SJ-N-KP; format: cell-based, human; details: 72 hrs exposure, medium with non-inactivated FBS (esterase)
IMR5 [7] = assay: In vitro cytotoxicity assay (MTT), neuroblastoma IMR-5; format: cell-based, human; details: 72 hrs exposure, medium with non-inactivated FBS (esterase)
LoVo 109 [8] = assay: In vitro cytotoxicity assay (MTT), colon adenocarcinoma LoVo 109; format: cell-based, human; details: 72 hrs exposure, medium with non-inactivated FBS (esterase)

Compound	EC50 (SJ-N-KP [3]) [µM]	EC50 (IMR5 [4]; 72 hrs exposure) [µM]	EC50 (LoVo 109 [5]) [µM]	other results
O=C1c2cccc(O)c2C(=O)c2c(O)cc(CO)cc21 [Aloe-emodin, aloe-emodin]				solubility [1]: hardly soluble in water and in the physiological solution; cytotoxicity [2]: specific cytotoxicity to tumour cells of neuroectodermal origin
O=C(O)C=CC(=O)OCc1cc(O)c2c(c1)C(=O)c1cccc(O)c1C2=O [Ex. 1: AM, mono-(4,5-dihydroxy-9,10-dioxo-9,10-dihydroanthracen-2-ylmethyl)ester but-2-endioic acid]	270 to 280	270 to 280		
O=C(O)CCC(=O)OCc1cc(O)c2c(c1)C(=O)c1cccc(O)c1C2=O [Ex. 2: AS, mono-(4,5-dihydroxy-9,10-dioxo-9,10-dihydroanthracen-2-ylmethyl)ester succinic acid]	43	40	43	
O=C(O)COCC(=O)OCc1cc(O)c2c(c1)C(=O)c1cccc(O)c1C2=O [Ex. 3: ADG, (4,5-Dihydroxy-9,10-dioxo-9,10-dihydroanthracen-2-ylmethoxycarbonylmethoxy) acetic acid]				EC50 (SJ-N-KP [3]; Homo sapiens): 10 µM; EC50 (IMR5 [4]; Homo sapiens, IMR-5, 72 hrs exposure): 10 µM; EC50 (LoVo 109 [5]; Homo sapiens, LoVo): 20 µM
O=C(O)c1ccccc1C(=O)OCc1cc(O)c2c(c1)C(=O)c1cccc(O)c1C2=O [Ex. 4: AF, mono-(4,5-dihydroxy-9,10-dioxo-9,10-dihydroanthracen-2-ylmethyl)ester phthalic acid]	300	250		EC50 (SJ-N-KP [6]): 50 µM; EC50 (IMR5 [7]): 50 µM; EC50 (LoVo 109 [8]): 50 µM
O=C(O)c1ccc(C(=O)OCc2cc(O)c3c(c2)C(=O)c2cccc(O)c2C3=O)c(C(=O)O)c1 [Ex. 5: ABT, 1-(4,5-dihydroxy-9,10-dioxo-9,10-dihydroanthracen-2-ylmethyl)ester 1,2,4-Benzenetricarboxylic acid]	150	160		
N[C@@H](Cc1c[nH]c2ccccc12)C(=O)OCc1cc(O)c2c(c1)C(=O)c1cccc(O)c1C2=O [Ex. 6: TRIP, AE Ester with Tryptophan]	8 to 9	10	8 to 9	
CC(N)C(=O)OCc1cc(O)c2c(c1)C(=O)c1cccc(O)c1C2=O (centres unmarked) [Ex. 7: ALA-NH2, AE Ester with Alanine]	264	300		
CC[C@H](C)[C@H](N)C(=O)OCc1cc(O)c2c(c1)C(=O)c1cccc(O)c1C2=O [Ex. 8: PJ8, AE Ester with Isoleucine]	9	9	20	
NC(Cc1ccc(O)cc1)C(=O)OCc1cc(O)c2c(c1)C(=O)c1cccc(O)c1C2=O (centres unmarked) [Ex. 9: TIR-NH2, AE Ester with Tyrosine]	96.4		26	
C[C@H](N)C(=O)OCc1cc(O)c2c(c1)C(=O)c1cccc(O)c1C2=O [Ex. 10: EM9, ala-aloe-emodin trifluoroacetate]	6.7	6.7	5	
C[C@H](N)C(=O)OCc1cc(O)c2c(c1)C(=O)c1cccc(O)c1C2=O [Ex. 11: ALA, ala-aloe-emodin hydrochloride]			200	EC50 (SJ-N-KP [3]; hydrochloride): 200 µM; EC50 (SJ-N-KP [3]; listed as Ex. 11: ALA-HCI, hydrochloride): 70.6 µM; EC50 (IMR5 [4]; 72 hrs exposure, hydrochloride): 200 µM; EC50 (IMR5 [4]; 72 hrs exposure, listed as Ex. 11: ALA-HCI, hydrochloride): 70.6 µM
O=C1c2cccc(O)c2C(=O)c2c(O)cc(COP(=O)(O)O)cc21 [Ex. 12: AEP, AE Ester with Phosphoric Acid]	12	10	20	
AE Acetal with Daunosamine [Ex. 13: AED]	5	5	10	
